Measured values: PubChem BioAssay (NCI)
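How tested: cells in 96-well plates exposed to compound for 48 hours at five concentrations. GI50 = concentration required for 50% inhibition of growth. The concentration for full growth arrest is given as TGI.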

Experiments:
Assay in all cases: DTP human tumour cell line panel, 48 h
[1] = test system: EKVX NSCLC
[2] = test system: NCI-H460 lung
[3] = test system: OVCAR-3 ovarian
[4] = test system: OVCAR-8 ovarian
[5] = test system: RXF 393 renal
[6] = test system: SF-295 CNS
[7] = test system: SK-OV-3 ovarian
[8] = test system: SW-620 colon
[9] = test system: SN12C renal
[10] = test system: PC-3 prostate

| SMILES | TGI [1] [µM] | TGI [2] [µM] | TGI [3] [µM] | TGI [4] [µM] | TGI [5] [µM] | TGI [6] [µM] | TGI [7] [µM] | TGI [8] [µM] | GI50 [1] [µM] | GI50 [2] [µM] | GI50 [3] [µM] | GI50 [4] [µM] | GI50 [5] [µM] | GI50 [6] [µM] | GI50 [7] [µM] | GI50 [9] [µM] | TGI [9] [µM] | GI50 [8] [µM] | GI50 [10] [µM] | TGI [10] [µM] |
| --- | --- | --- | --- | --- | --- | --- | --- | --- | --- | --- | --- | --- | --- | --- | --- | --- | --- | --- | --- | --- |
| O=C1C(=O)N(C(=O)c2ccc(Cl)c(Cl)c2)c2ccc(Cl)cc21 | > 100 | > 100 | > 100 | > 100 | > 100 | > 100 | > 100 | > 100 | – | – | – | – | – | – | – | – | – | – | – | – |
| N.N.N.N.N.N.[I-].[Os] | > 100 | > 100 | > 100 | > 100 | > 100 | > 100 | > 100 | > 100 | > 100 | > 100 | > 100 | > 100 | > 100 | > 100 | > 100 | > 100 | > 100 | > 100 | – | – |
| C#CCOCn1cnc2c(=S)nc[nH]c21 | > 100 | > 100 | > 100 | > 100 | > 100 | > 100 | > 100 | > 100 | – | – | – | – | – | – | – | – | > 100 | – | – | – |
| COc1ccc(-c2nn(-c3cccc(NC(=O)Nc4ccc(Cl)c(C(F)(F)F)c4)c3)cc2-c2ccncc2)cc1Cl | – | 8.99 | – | 13.1 | 4.83 | 7.23 | > 100 | 63.9 | – | 1.99 | – | 2.43 | 1.42 | 2.31 | 4.31 | 2.99 | > 100 | 3.66 | 1.32 | 6.85 |
| CC1(C)OC(C(N)=O)=C(C(N)=O)O1 | > 100 | > 100 | > 100 | > 100 | > 100 | > 100 | > 100 | > 100 | – | – | – | – | – | – | – | – | > 100 | – | – | – |
| Cc1c(C(=O)CC(=O)C(=O)Nc2ccc(Cl)c(Cl)c2)[n+](=O)c2ccccc2n1[O-] | 36.9 | 57.1 | 7.91 | 43.6 | 92.2 | > 100 | > 100 | 71.8 | – | – | – | – | – | – | – | – | 55.4 | – | – | – |
| CCC(C)OC(=O)C1C2CCC(O2)C1C(=O)O (stereo not given) | > 100 | > 55.4 | > 100 | > 100 | > 56.2 | > 100 | > 100 | > 32.1 | – | – | – | – | – | – | – | – | > 100 | – | – | – |
| N/C(=N\N=C\c1cccs1)NO | > 100 | > 100 | > 100 | > 100 | > 100 | > 100 | > 100 | > 100 | – | – | – | – | – | – | – | – | > 100 | – | – | – |
| COc1ccc(C(c2ccc(C(C)C)cc(=O)c2O)c2ccc3cccnc3c2O)cc1 (stereo not given) | 7.86 | 10.1 | 4.95 | 12.7 | – | 7.43 | 16.4 | 24.4 | – | – | – | – | – | – | – | – | 9.48 | – | – | – |
| CCc1ccccc1NC(=O)CCc1n[nH]c(=S)o1 | > 100 | > 100 | > 100 | > 100 | – | > 100 | > 100 | 44.1 | – | – | – | – | – | – | – | – | > 100 | – | – | – |
| CN=C1Nc2ccc(Cl)cc2C(c2ccccc2)=NN1C | > 100 | > 100 | > 100 | > 100 | 81.1 | > 100 | – | > 100 | – | – | – | – | – | – | – | – | > 100 | – | – | – |
| CC(=O)NC(CCCCNC(=O)N(CCCl)N=O)C(=O)NCc1ccccc1 (stereo not given) | > 100 | > 100 | > 100 | > 100 | – | > 100 | – | > 100 | – | – | – | – | – | – | – | – | > 100 | – | – | – |
| CC(=O)OCc1cc(OC(C)=O)cnc1COC(C)=O | > 100 | > 100 | > 100 | > 100 | > 100 | > 100 | > 100 | > 100 | – | – | – | – | – | – | – | – | > 100 | – | – | – |
| COc1cc(-c2cc(=O)c3ccccc3o2)ccc1N | > 100 | > 100 | > 100 | > 100 | > 100 | > 100 | > 100 | > 100 | – | – | – | – | – | – | – | – | > 100 | – | – | – |
| COc1ccc(-c2cnc3ccnn3c2-c2cc(OC)c(OC)c(OC)c2)cc1 | – | > 100 | 7.91 | > 100 | > 100 | 20 | > 100 | > 100 | – | 3.39 | 2.51 | 7.25 | 2.6 | 1.93 | 4.63 | 5.4 | > 100 | 2.36 | 2 | > 100 |
| ClC1CCC2OOC1O2 (stereo not given) | > 100 | > 100 | > 100 | > 100 | > 100 | > 100 | > 100 | > 100 | – | – | – | – | – | – | – | – | > 100 | – | – | – |
| COc1cc2nc(Sc3c([N+](=O)[O-])ncn3C)[nH]c2cc1OC | 80.7 | > 100 | > 100 | 58 | 43.9 | > 100 | > 100 | > 100 | – | – | – | – | – | – | – | – | 41.5 | – | – | – |
| O=C(O)c1ccc(O)c(N=Nc2cc(S(=O)(=O)O)c3ccccc3c2O)c1 | > 100 | > 100 | > 100 | > 100 | > 100 | > 10 | > 10 | > 100 | – | – | – | – | – | – | – | – | > 100 | – | – | – |
| O=c1cc(-c2ccc(Cl)cc2)[nH]c2ncccc12 | > 100 | > 100 | 73.8 | > 100 | – | > 100 | > 100 | > 100 | – | 37.9 | 23.4 | – | – | 40.7 | – | – | > 100 | – | 47.6 | > 100 |
| ClCc1ccc(-c2ccc(Cn3cnc4c(Cl)nc(Cl)nc43)cc2)cc1 | 15.5 | 10.6 | 3.05 | – | 3.38 | 6.5 | 22.6 | 3.41 | 3.32 | 3 | 1.65 | – | 1.67 | 2.69 | 10.6 | 2.72 | 8.93 | 1.83 | 2.21 | 5.28 |
| O=c1c2ccccc2nc(-c2ccc(Br)cc2)n1NC1OC(CO)C(O)C(O)C1O (stereo not given) | > 100 | > 100 | > 100 | > 100 | – | > 100 | > 100 | > 100 | – | – | – | – | – | – | – | – | > 100 | – | – | – |
